Like-named read-outs stand apart in the source and are kept apart here.
Target: recombinant human GPR52 (Homo sapiens, UniProt Q9Y2T5)
Assay: HTRF cAMP assay, GPR52 activity (Example A)
Type: cell-based
Settings: for Emax: maximum cAMP at 10 μM or 31.6 μM test compound, as percentage of Emax of control compound 4-(3-(3-fluoro-5-(trifluoromethyl)benzyl)-5-methyl-4,5-dihydro-1H-1,2,4-triazol-1-yl)-2-methylbenzamide
Method: Compounds of Formula I were assessed for their ability to modulate GPR52 activity. HTRF CAMP assays were performed using a commercially available assay kit (CAMP Gs HiRange HTRF®, CisBio). Controls and compounds were solubilized in DMSO and 62.5 nanoliters of the diluted compounds were transferred into 384-well NBS assay plates via acoustic or precision low-volume dispensing. Compounds were further diluted to 1× with the addition of 20,000 cells per well. Flp-In™—CHO cells that stably express recombinant human GPR52 were used in the assay.
Cells were harvested with cell stripper and resuspended in stimulation buffer. After thirty minutes incubation at room temperature, detection reagents were added to each well. Plates were then incubated for an additional 30 minutes at room temperature. CAMP produced by the cells during the first incubation period competes with d2-labeled CAMP for binding to an anti-cAMP monoclonal antibody labeled with europium cryptate. The measured signal was inversely proportional to the concentration of cAMP produced by the cells and this signal was quantified using a PHERAstar® multi-mode plate reader.
Dose-response curves were generated from the HTRF counts that have been transformed based on a CAMP referenced curve, and then normalized to the positive control. EC50 values were obtained using a nonlinear regression curve-fitting program. […] The Emax (Table 13) is the maximum amount of cAMP (nM) produced by incubation of the cells with 10 μM or 31.6 μM of a test compound. The compound is defined by the top plateau of the sigmoid curve fit. The curve is then normalized to a control compound, in this case 4-(3-(3-fluoro-5-(trifluoromethyl)benzyl)-5-methyl-4,5-dihydro-1H-1,2,4-triazol-1-yl)-2-methylbenzamide (Tokumaru, K., et al., “Design, synthesis, and pharmacological evaluation of 4-azolyl-benzamide derivatives as novel GPR52 agonists”, Bioorganic & Medicinal Chemistry, Volume 25, Issue 12, June 2017, pages 3098-3115), and expressed as a percentage of the Emax of that control compound.

[1] = average EC50 (n=1 to 15), Flp-In-CHO cells stably expressing recombinant human GPR52, cAMP HTRF, read-out: EC50 (N=)

Sequence of recombinant human GPR52 (Q9Y2T5 whole entry): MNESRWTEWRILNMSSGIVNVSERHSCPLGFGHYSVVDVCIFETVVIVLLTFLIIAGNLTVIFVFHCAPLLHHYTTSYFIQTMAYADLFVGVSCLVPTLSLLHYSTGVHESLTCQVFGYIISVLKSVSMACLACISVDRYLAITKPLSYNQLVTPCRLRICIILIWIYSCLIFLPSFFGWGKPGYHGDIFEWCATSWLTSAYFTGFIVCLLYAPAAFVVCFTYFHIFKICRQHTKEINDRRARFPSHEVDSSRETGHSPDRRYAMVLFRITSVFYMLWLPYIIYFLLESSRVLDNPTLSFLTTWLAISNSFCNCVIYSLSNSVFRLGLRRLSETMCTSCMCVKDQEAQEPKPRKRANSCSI

| SMILES | EC50 [1] | Emax | EC50 (Flp-In-CHO cells expressing human GPR52, read-out: average EC50) | EC50 (comparison of position of the nitrogen in the pyridine ring relative to the oxygen linker, read-out: Activity EC50) |
| --- | --- | --- | --- | --- |
| CCc1cc(-c2cc(Oc3ccc4c(C)nn(C(F)(F)F)c4c3)ccn2)ccc1C(N)=O [Example 134, 2-ethyl-4-(4-((3-methyl-1-(trifluoromethyl)-1H-indazol-6-yl)oxy)pyridin-2-yl)benzamide] | 101 to 1000 nM | 117% |  |  |
| Cc1cc(-c2cc(Oc3ccc4nn(C)cc4c3)ccn2)ccc1C(N)=O [Example 6, 2-methyl-4-(4-((2-methyl-2H-indazol-5-yl)oxy)pyridin-2-yl)benzamide] | 101 to 1000 nM | 110% |  |  |
| Cc1cc(-c2cc(Oc3ccc4ncc(Cl)cc4c3)ccn2)ccc1C(N)=O [Example 99, 4-(4-((3-chloroquinolin-6-yl)oxy)pyridin-2-yl)-2-methylbenzamide] | 101 to 1000 nM | 138% |  |  |
| Cc1cc(-c2cc(N)nc(Oc3ccc4nn(C)cc4c3)c2)ccc1C(N)=O [Example 15, 4-(2-amino-6-((2-methyl-2H-indazol-5-yl)oxy)pyridin-4-yl)-2-methylbenzamide] | 1000 to 2000 nM | 72% |  |  |
| Cc1cc(-c2cc(Oc3ccc4c(F)nn(C)c4c3)ccn2)ccc1C(N)=O [Example 128, 4-(4-((3-fluoro-1-methyl-1H-indazol-6-yl)oxy)pyridin-2-yl)-2-methylbenzamide] | 25 to 100 nM | 118% |  |  |
| NC(=O)c1ccc(-c2cc(Oc3ccc4cnccc4c3)ccn2)cc1Cl [Example 82, 2-chloro-4-(4-(isoquinolin-6-yloxy)pyridin-2-yl)benzamide] | 101 to 1000 nM | 110% |  |  |
| Cc1cc(-c2cc(Oc3ccc4c(c3)CCO4)ccn2)ccc1C(N)=O [Example 67, 4-(4-((2,3-dihydrobenzofuran-5-yl)oxy)pyridin-2-yl)-2-methylbenzamide] | 101 to 1000 nM | 129% |  |  |
| Cc1cc(-c2cc(Oc3ccc4ccncc4c3)ccn2)ccc1C(N)=O [Example 79, 4-(4-(isoquinolin-7-yloxy)pyridin-2-yl)-2-methylbenzamide] | 101 to 1000 nM | 60% |  |  |
| Cc1cc(-c2cc(Oc3ccc4c(C(F)(F)F)nn(C)c4c3)ccn2)ccc1C(N)=O [Example 37, 2-methyl-4-(4-((1-methyl-3-(trifluoromethyl)-1H-indazol-6-yl)oxy)pyridin-2-yl)benzamide] | 101 to 1000 nM | 81% |  |  |
| CCc1cc(-c2cc(Oc3cnc4c(c3)c(C)nn4C)cc(N)n2)ccc1C(N)=O [Example 22, 4-(6-amino-4-((1,3-dimethyl-1H-pyrazolo[3,4-b]pyridin-5-yl)oxy)pyridin-2-yl)-2-ethylbenzamide] | 101 to 1000 nM | 123% |  |  |
| Cc1cc(-c2cc(Oc3cccc4occc34)ccn2)ccc1C(N)=O [Example 90, 4-(4-(benzofuran-4-yloxy)pyridin-2-yl)-2-methylbenzamide] | 1000 to 2000 nM | 107% |  |  |
| Cc1cc(-c2cc(Oc3cnc4c(F)nn(C)c4c3)ccn2)ccc1C(N)=O [Example 127, 4-(4-((3-fluoro-1-methyl-1H-pyrazolo[4,3-b]pyridin-6-yl)oxy)pyridin-2-yl)-2-methylbenzamide] | 101 to 1000 nM | 116% |  |  |
| CCc1cc(-c2cc(Oc3cnc4ccc(Cl)cc4c3)ccn2)ccc1C(N)=O [Example 110, 4-(4-((6-chloroquinolin-3-yl)oxy)pyridin-2-yl)-2-ethylbenzamide] | 101 to 1000 nM | 137% |  |  |
| CCc1cc(-c2cc(Oc3cnc4c(Cl)cccc4c3)ccn2)ccc1C(N)=O [Example 112, 4-(4-((8-chloroquinolin-3-yl)oxy)pyridin-2-yl)-2-ethylbenzamide] | 101 to 1000 nM | 100% |  |  |
| CCc1cc(-c2cc(Oc3cnc4c(c3)c(C(F)(F)F)nn4C)cc3nccn23)ccc1C(N)=O [Example 77, 2-ethyl-4-(7-((1-methyl-3-(trifluoromethyl)-1H-pyrazolo[3,4-b]pyridin-5-yl)oxy)imidazo[1,2-a]pyridin-5-yl)benzamide] | 101 to 1000 nM | 75% |  |  |
| CCc1cc(-c2cc(Oc3ccc4ncccc4c3F)ccn2)ccc1C(N)=O [Example 106, 2-ethyl-4-(4-((5-fluoroquinolin-6-yl)oxy)pyridin-2-yl)benzamide] | 101 to 1000 nM | 100% |  |  |
| CCc1cc(-c2cc(Oc3ccc4c(c3)c(F)nn4C)ccn2)ccc1C(N)=O [Example 133, 2-ethyl-4-(4-((3-fluoro-1-methyl-1H-indazol-5-yl)oxy)pyridin-2-yl)benzamide] | 101 to 1000 nM | 141% |  |  |

| SMILES | EC50 [1] | Emax | EC50 (Flp-In-CHO cells expressing human GPR52, read-out: average EC50) | EC50 (comparison of position of the nitrogen in the pyridine ring relative to the oxygen linker, read-out: Activity EC50) |
| --- | --- | --- | --- | --- |
| Cc1cc(-c2cc(Oc3ccc4c(C)nn(C)c4c3)ccn2)ccc1C(N)=O [Example 25, 4-(4-((1,3-dimethyl-1H-indazol-6-yl)oxy)pyridin-2-yl)-2-methylbenzamide] | 25 to 100 nM | 103% | 83 nM |  |
| Cc1cc(-c2cncc(Oc3ccc4cnn(C)c4c3)n2)ccc1C(N)=O [Example 11, 2-methyl-4-(6-((1-methyl-1H-indazol-6-yl)oxy)pyrazin-2-yl)benzamide] | 101 to 1000 nM | 101% |  |  |
| Cc1cc(-c2cc(Oc3ccc4occc4c3)ccn2)ccc1C(N)=O [Example 83, 4-(4-(benzofuran-5-yloxy)pyridin-2-yl)-2-methylbenzamide] | 101 to 1000 nM | 153% |  |  |
| CCc1cc(-c2cc(Oc3cc(F)c4cnn(C)c4c3)cc3nccn23)ccc1C(N)=O [Example 72, 2-ethyl-4-(7-((4-fluoro-1-methyl-1H-indazol-6-yl)oxy)imidazo[1,2-a]pyridin-5-yl)benzamide] | 25 to 100 nM | 69% |  |  |
| Cc1nn(C)c2cc(Oc3ccnc(-c4ccc(C(N)=O)c(Cl)c4)c3)ccc12 [Example 40, 2-chloro-4-(4-((1,3-dimethyl-1H-indazol-6-yl)oxy)pyridin-2-yl)benzamide] | 25 to 100 nM | 92% |  |  |
| Cc1nn(C)c2cc(Oc3ccnc(-c4ccc(C(N)=O)c(C(F)(F)F)c4)c3)cnc12 [Example 30, 4-(4-((1,3-dimethyl-1H-pyrazolo[4,3-b]pyridin-6-yl)oxy)pyridin-2-yl)-2-(trifluoromethyl)benzamide] | 1000 to 2000 nM | 87% |  |  |
| CCc1cc(-c2cc(Oc3cnc4ccc(F)cc4c3)ccn2)ccc1C(N)=O [Example 104, 2-ethyl-4-(4-((6-fluoroquinolin-3-yl)oxy)pyridin-2-yl)benzamide] | 101 to 1000 nM | 110% |  |  |
| CCc1cc(-c2cc(Oc3ccc4c(C)nn(C)c4c3)ccn2)ccc1C(N)=O [Example 53, 4-(4-((1,3-dimethyl-1H-indazol-6-yl)oxy)pyridin-2-yl)-2-ethylbenzamide] | 25 to 100 nM | 105% |  |  |
| Cc1cc(-c2cc(Oc3ccc4c(C)nn(C(F)(F)F)c4c3)ccn2)ccc1C(N)=O [Example 135, 2-methyl-4-(4-((3-methyl-1-(trifluoromethyl)-1H-indazol-6-yl)oxy)pyridin-2-yl)benzamide] | 101 to 1000 nM | 115% |  |  |
| Cc1cc(-c2cc(Oc3ccc4c(c3)NCCO4)ccn2)ccc1C(N)=O [Example 69, 4-(4-((3,4-dihydro-2H-benzo[b][1,4]oxazin-6-yl)oxy)pyridin-2-yl)-2-methylbenzamide] | < 25 nM | 119% |  |  |
| CCc1cc(-c2cc(Oc3cnc4c(C)nn(C)c4c3)ccn2)ccc1C(=O)NC [Example 60, 4-(4-((1,3-dimethyl-1H-pyrazolo[4,3-b]pyridin-6-yl)oxy)pyridin-2-yl)-2-ethyl-N-methylbenzamide] | 101 to 1000 nM | 102% |  |  |
| Cc1cc(-c2cc(Oc3ccc4c(c3)c(C)nn4C)ccn2)ccc1C(N)=O [Example 58, 4-(4-((1,3-dimethyl-1H-indazol-5-yl)oxy)pyridin-2-yl)-2-methylbenzamide] | 25 to 100 nM | 108% |  |  |
| CCc1cc(-c2cc(Oc3ccc4cn[nH]c4c3)ccn2)ccc1C(N)=O [Example 41, 4-(4-((1H-indazol-6-yl)oxy)pyridin-2-yl)-2-ethylbenzamide] | 101 to 1000 nM | 125% |  |  |
| Cc1cc(-c2cc(Oc3ccn4nccc4c3)ccn2)ccc1C(N)=O [Example 13, 2-methyl-4-(4-(pyrazolo[1,5-a]pyridin-5-yloxy)pyridin-2-yl)benzamide] | 101 to 1000 nM | 97% |  |  |
| Cc1cc(-c2ccnc(Oc3ccc4c(c3)c(C)nn4C)c2)ccc1C(N)=O |  |  |  | 2040 nM |
| NC(=O)c1ccc(-c2cc(Oc3ccc4ccncc4c3)ccn2)cc1Cl [Example 80, 2-chloro-4-(4-(isoquinolin-7-yloxy)pyridin-2-yl)benzamide] | 101 to 1000 nM | 54% |  |  |
| Cc1cc(-c2cccc(Oc3ccc4cnn(C)c4c3)c2)ccc1C(N)=O [Example 51, 3-methyl-3′-((1-methyl-1H-indazol-6-yl)oxy)-[1,1′-biphenyl]-4-carboxamide] | 1000 to 2000 nM | 96% |  |  |

From patent US20260167615A1, “COMPOUNDS AND COMPOSITIONS AS GPR52 MODULATORS” (Neurocrine Biosciences, Inc., priority 2022, published 2026)
